Measured values reported in ChEMBL document CHEMBL4507319 (2021).

Legend:
[1] = biological target: Bone morphogenetic protein receptor type-1B (Homo sapiens) (UniProt O00238); assay: ALK6(h) Eurofins kinase panel; details: Compound concentration 1.0 uM
[2] = biological target: Calcium/calmodulin-dependent protein kinase type II subunit delta (Homo sapiens) (UniProt Q13557); assay: CaMKIIdelta(h) Eurofins kinase panel; details: Compound concentration 1.0 uM
[3] = biological target: Calcium/calmodulin-dependent protein kinase kinase 2 (Homo sapiens) (UniProt Q96RR4); assay: CaMKK2(h) Eurofins kinase panel; details: Compound concentration 1.0 uM
Sequence of Calcium/calmodulin-dependent protein kinase kinase 2 (Homo sapiens) (Q96RR4 2-588 limits assumed): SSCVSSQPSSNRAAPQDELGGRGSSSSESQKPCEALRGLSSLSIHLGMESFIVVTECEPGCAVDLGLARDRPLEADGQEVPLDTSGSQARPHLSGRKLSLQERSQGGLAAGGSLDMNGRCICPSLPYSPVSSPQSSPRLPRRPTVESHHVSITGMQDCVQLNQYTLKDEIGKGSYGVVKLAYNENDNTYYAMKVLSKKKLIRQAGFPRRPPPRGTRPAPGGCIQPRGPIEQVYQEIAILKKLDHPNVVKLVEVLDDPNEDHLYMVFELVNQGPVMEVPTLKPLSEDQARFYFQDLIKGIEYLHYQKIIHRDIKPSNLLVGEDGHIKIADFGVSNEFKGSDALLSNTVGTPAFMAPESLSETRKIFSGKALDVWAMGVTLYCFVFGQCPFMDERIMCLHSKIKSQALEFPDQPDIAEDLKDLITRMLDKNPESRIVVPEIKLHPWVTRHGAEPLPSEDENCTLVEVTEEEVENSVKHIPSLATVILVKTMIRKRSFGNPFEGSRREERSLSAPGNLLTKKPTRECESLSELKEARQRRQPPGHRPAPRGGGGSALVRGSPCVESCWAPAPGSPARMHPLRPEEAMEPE

[4] = biological target: T1, Dual specificity tyrosine-phosphorylation-regulated kinase 2 (Homo sapiens) (UniProt Q92630); assay: DYRK2(h) Eurofins kinase panel; details: Compound concentration 1.0 uM
T1 sequence (whole entry): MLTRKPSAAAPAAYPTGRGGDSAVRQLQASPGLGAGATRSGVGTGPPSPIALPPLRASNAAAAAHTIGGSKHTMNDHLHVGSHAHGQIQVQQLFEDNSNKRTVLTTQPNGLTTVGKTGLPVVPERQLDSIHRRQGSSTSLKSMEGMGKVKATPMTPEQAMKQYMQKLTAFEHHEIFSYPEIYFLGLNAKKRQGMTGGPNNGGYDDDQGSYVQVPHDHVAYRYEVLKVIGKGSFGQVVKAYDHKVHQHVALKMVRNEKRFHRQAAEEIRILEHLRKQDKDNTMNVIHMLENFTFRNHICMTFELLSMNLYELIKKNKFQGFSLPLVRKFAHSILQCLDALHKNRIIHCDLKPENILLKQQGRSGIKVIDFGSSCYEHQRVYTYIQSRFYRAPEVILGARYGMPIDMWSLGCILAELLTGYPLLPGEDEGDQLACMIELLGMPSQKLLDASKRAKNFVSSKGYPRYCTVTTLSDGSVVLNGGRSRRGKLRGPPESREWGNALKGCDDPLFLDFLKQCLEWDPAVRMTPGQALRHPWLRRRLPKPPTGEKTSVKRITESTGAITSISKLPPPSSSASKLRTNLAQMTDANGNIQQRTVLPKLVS

[5] = biological target: Tyrosine-protein kinase Fes/Fps (Homo sapiens) (UniProt P07332); assay: Fes(h) Eurofins kinase panel; details: Compound concentration 1.0 uM
Sequence of Tyrosine-protein kinase Fes/Fps (Homo sapiens) (P07332 whole entry): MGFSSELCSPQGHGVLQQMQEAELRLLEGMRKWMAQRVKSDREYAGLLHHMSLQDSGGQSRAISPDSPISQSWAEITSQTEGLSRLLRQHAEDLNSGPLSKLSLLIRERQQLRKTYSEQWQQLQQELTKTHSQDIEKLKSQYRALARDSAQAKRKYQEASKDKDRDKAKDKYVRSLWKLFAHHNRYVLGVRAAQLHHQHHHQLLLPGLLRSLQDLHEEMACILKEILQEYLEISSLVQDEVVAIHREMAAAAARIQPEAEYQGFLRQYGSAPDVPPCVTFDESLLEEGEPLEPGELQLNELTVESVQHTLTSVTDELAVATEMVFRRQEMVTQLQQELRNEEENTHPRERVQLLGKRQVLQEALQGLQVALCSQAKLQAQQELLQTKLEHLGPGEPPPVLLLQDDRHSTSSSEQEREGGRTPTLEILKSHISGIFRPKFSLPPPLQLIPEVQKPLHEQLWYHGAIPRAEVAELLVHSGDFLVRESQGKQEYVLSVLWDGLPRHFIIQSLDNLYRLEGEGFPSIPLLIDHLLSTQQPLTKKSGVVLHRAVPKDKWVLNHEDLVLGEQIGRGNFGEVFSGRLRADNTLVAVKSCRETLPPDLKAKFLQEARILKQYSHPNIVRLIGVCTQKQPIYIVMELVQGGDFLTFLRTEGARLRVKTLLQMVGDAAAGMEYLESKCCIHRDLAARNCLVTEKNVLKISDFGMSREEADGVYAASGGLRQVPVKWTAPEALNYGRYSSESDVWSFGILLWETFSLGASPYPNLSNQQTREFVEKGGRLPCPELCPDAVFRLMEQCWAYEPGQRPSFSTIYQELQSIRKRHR

[6] = biological target: Fibroblast growth factor receptor 3 (Homo sapiens) (UniProt P22607); assay: FGFR3(h) Eurofins kinase panel; details: Compound concentration 1.0 uM
[7] = biological target: LIM domain kinase 1 (Homo sapiens) (UniProt P53667); assay: LIMK1(h) Eurofins kinase panel; details: Compound concentration 1.0 uM
Sequence of LIM domain kinase 1 (Homo sapiens) (P53667 whole entry, looked up, the tested form may be a part): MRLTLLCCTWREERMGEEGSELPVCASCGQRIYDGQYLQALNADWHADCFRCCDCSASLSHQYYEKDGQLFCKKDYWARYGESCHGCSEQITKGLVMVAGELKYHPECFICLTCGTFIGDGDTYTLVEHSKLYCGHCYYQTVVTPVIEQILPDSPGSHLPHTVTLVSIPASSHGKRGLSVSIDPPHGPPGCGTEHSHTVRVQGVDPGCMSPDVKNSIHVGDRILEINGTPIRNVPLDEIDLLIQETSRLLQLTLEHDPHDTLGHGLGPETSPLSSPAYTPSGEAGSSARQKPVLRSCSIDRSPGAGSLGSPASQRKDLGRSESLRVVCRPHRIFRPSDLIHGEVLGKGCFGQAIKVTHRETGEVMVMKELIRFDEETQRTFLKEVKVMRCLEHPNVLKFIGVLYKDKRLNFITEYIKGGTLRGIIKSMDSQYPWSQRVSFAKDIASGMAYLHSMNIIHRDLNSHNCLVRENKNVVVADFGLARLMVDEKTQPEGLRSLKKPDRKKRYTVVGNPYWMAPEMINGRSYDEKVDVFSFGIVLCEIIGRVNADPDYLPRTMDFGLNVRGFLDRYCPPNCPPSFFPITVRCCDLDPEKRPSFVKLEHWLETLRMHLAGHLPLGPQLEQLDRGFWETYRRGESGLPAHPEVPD

[8] = biological target: T2, Serine/threonine-protein kinase TAO2 (Homo sapiens) (UniProt Q9UL54); assay: TAO2(h) Eurofins kinase panel; details: Compound concentration 1.0 uM
T2 sequence (whole entry): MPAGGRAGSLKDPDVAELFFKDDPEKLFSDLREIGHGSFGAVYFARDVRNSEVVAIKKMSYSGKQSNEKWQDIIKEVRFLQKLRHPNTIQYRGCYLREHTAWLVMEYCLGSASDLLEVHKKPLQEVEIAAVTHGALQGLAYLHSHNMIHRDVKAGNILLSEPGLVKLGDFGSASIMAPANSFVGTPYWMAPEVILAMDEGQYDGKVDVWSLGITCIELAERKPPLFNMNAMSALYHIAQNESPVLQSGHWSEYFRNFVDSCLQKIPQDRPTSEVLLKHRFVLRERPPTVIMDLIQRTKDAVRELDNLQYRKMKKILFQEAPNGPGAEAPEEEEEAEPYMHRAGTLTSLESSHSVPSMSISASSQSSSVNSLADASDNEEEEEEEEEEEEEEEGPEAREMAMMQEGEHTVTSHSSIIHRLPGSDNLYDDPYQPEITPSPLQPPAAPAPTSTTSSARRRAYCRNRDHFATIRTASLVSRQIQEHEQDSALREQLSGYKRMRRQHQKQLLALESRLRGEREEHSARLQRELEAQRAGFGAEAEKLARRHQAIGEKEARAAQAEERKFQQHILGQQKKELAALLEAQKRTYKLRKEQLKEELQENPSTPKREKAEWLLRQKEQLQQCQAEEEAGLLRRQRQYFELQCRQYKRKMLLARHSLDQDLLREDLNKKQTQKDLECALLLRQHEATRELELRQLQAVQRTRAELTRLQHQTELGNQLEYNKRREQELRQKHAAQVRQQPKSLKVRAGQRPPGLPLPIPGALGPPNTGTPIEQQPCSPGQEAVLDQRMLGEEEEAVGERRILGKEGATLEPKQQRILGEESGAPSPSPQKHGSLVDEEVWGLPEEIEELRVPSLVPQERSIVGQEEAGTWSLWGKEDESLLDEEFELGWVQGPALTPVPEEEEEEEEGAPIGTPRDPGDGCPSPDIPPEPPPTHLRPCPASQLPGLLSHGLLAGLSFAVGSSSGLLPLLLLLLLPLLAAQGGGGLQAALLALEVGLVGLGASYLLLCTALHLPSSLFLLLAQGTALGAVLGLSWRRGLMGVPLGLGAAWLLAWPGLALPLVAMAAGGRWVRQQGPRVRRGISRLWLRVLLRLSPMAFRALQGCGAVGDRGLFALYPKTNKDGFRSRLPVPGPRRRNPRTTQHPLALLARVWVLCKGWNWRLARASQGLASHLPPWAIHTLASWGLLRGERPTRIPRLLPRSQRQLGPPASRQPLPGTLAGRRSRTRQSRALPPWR

[9] = biological target: TRAF2 and NCK-interacting protein kinase (Homo sapiens) (UniProt Q9UKE5); assay: TNIK(h) Eurofins kinase panel; details: Compound concentration 1.0 uM
Sequence of TRAF2 and NCK-interacting protein kinase (Homo sapiens) (Q9UKE5 whole entry, looked up): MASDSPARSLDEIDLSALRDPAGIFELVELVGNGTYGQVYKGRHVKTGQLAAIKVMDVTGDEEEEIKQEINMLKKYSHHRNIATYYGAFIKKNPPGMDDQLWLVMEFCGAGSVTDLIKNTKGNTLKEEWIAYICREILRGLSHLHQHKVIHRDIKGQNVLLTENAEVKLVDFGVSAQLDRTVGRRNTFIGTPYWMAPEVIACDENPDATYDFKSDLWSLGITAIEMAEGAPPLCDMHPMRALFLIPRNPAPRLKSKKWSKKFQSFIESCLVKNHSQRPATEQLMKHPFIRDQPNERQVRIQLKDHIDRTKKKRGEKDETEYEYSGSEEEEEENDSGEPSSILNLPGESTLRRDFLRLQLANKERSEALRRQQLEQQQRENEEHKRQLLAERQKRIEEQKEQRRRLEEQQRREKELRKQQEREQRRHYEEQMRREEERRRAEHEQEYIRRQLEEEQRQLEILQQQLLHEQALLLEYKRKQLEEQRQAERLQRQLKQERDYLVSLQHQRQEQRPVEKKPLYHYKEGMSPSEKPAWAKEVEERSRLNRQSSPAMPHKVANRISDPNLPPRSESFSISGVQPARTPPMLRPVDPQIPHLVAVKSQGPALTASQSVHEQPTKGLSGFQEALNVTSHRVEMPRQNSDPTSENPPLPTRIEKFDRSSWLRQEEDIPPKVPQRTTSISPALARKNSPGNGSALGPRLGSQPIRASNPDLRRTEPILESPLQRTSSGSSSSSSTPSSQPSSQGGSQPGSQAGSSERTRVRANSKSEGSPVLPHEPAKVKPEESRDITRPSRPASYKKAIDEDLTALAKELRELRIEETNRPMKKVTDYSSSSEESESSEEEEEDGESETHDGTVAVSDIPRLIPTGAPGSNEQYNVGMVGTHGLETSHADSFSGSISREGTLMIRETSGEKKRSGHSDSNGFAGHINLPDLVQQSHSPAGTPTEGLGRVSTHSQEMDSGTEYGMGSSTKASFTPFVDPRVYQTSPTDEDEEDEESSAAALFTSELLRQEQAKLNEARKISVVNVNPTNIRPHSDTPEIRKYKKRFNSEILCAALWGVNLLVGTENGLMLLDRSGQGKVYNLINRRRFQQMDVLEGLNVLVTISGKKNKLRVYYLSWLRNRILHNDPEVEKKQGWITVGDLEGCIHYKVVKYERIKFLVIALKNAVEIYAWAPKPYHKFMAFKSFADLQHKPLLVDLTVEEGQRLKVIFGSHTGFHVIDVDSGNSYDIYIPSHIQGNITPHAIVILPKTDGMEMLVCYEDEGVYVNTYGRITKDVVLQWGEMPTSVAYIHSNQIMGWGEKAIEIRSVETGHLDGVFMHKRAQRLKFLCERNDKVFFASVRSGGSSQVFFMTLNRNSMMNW

[10] = biological target: High affinity nerve growth factor receptor (Homo sapiens) (UniProt P04629); assay: TrkA(h) Eurofins kinase panel; details: Compound concentration 1.0 uM
Sequence of High affinity nerve growth factor receptor (Homo sapiens) (P04629 33-796 limits assumed): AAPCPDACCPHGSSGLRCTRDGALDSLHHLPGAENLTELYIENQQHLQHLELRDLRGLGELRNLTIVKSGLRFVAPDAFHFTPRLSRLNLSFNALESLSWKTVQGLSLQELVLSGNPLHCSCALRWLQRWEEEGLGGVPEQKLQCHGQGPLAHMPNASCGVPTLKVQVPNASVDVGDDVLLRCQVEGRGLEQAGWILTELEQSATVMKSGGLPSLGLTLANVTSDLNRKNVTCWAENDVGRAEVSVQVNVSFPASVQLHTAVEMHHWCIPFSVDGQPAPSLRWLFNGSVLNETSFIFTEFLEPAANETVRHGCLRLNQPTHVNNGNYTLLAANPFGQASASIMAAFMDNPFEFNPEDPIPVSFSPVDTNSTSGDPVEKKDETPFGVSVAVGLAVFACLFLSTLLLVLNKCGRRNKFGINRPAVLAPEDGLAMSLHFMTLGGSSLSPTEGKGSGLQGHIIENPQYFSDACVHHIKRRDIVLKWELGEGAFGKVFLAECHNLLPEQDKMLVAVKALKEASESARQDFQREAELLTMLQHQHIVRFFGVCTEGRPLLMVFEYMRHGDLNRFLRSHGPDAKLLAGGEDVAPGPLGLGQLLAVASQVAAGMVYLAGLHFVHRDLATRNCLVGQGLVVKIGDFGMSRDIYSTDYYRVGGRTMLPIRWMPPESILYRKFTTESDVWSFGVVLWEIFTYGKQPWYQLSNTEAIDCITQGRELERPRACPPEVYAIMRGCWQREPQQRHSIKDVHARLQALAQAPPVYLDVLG

[11] = biological target: T3, Tyrosine-protein kinase ZAP-70 (Homo sapiens) (UniProt P43403); assay: ZAP-70(h) Eurofins kinase panel; details: Compound concentration 1.0 uM
T3 sequence (whole entry): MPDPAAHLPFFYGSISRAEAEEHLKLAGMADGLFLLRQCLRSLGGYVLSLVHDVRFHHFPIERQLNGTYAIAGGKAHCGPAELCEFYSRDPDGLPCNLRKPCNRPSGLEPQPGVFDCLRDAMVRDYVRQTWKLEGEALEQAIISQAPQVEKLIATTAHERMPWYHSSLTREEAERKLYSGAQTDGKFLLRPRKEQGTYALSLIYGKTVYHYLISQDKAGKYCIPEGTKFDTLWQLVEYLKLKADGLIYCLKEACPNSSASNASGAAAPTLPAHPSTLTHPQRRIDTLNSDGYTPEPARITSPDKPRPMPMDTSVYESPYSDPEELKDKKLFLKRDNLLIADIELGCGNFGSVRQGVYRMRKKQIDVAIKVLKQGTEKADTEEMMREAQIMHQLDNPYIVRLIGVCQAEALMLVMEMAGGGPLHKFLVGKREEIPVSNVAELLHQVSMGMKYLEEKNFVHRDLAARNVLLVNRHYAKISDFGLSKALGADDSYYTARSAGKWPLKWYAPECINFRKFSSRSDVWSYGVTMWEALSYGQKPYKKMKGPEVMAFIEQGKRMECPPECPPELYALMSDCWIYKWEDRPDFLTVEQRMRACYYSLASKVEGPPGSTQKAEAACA

[12] = biological target: Phosphatidylinositol 5-phosphate 4-kinase type-2 alpha (Homo sapiens) (UniProt P48426); assay: PIP4K2a(h) Eurofins kinase panel; details: Compound concentration 1.0 uM
Sequence of Phosphatidylinositol 5-phosphate 4-kinase type-2 alpha (Homo sapiens) (P48426 whole entry): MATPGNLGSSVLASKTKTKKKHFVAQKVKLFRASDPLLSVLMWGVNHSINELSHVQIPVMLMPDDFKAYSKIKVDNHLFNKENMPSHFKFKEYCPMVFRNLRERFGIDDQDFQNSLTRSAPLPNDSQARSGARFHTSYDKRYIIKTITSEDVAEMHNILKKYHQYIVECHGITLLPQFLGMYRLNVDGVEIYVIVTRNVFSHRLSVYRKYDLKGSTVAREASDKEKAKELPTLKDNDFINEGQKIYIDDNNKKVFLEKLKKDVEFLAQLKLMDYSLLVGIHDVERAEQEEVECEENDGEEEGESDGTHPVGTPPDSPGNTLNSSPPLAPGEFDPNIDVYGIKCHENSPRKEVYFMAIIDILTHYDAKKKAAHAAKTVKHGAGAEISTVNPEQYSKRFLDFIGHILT

[13] = system: Rec1; assay: REC-1 cell line Proliferation assay; format: functional, Homo sapiens; details: time 3 day
[14] = system: SW480; assay: SW480 cell line Proliferation assay; format: functional, Homo sapiens; details: time 3 day

CCc1ccccc1C(=O)Nc1n[nH]c2c(C)c(F)c(C3C(C#N)=C(C)N(C)C(C)=C3C#N)cc12 [BAY-3827]
% residual kinase activity [1]: 99%
% residual kinase activity [2]: 75%
% residual kinase activity [3]: 101%
% residual kinase activity [4]: 100%
% residual kinase activity [5]: 89%
% residual kinase activity [6]: 99%
% residual kinase activity [7]: 95%
% residual kinase activity [8]: 104%
% residual kinase activity [9]: 49%
% residual kinase activity [10]: 60%
% residual kinase activity [11]: 119%
% residual kinase activity [12]: 105%
Cell Proliferation IC50 [13]: 3.3 µM
Cell Proliferation IC50 [14]: 27.8 µM
